From patent US20250332173A1, “COMPOUNDS AND METHODS FOR MODULATING NUCLEIC ACID SPLICING” (REMIX THERAPEUTICS INC., priority 2021, published 2025)
Read-outs that look alike come from different tables or passages of the source.

Tests used:
Assay type in all cases: cell-based, human
Target C [1] = assay: RT-qPCR splicing assay panel, Target C canonical junction (CJ) mRNA; settings: Homo sapiens; Table 5 panel; canonical junction qPCR; compound concentration having 50% response in CJ decrease; read-out: Target C IC50 (decrease in CJ mRNA levels)
Outline: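 A673 cells (DMEM/10% FBS) or K562 cells (IMDM/10% FBS) were treated 24 h at 37° C. with 11-point 3-fold dilutions (top 10 uM, ≤0.25% DMSO). Canonical-junction mRNA was quantified in lysates by RT-qPCR, normalized to GAPDH, GUSB or PPIA.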

MYB mRNA = assay: RT-qPCR splicing assay, MYB canonical junction (CJ) and alternative junction (AJ) mRNA; settings: Homo sapiens; for AC50: increase in MYB alternative junction (AJ) mRNA, read-out: MYB AJ AC50
Outline: (§1)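 A673 cells (normalized to PPIA) or K562 cells (normalized to GAPDH or GUSB) were treated 24 h at 37 °C with an 11-point 3-fold dilution series, top 10 uM, DMSO ≤0.25%. Cell lysates went to one-step RT-qPCR measuring canonical- and alternative-junction MYB or HTT transcripts.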

Target C [2] = assay: HiBiT protein abundance assay, Target C (Promega Nano-Glo HiBiT Lytic Detection System, knock-in K562 cell line); settings: Homo sapiens, K562, 24 h, HiBiT K562 cell line, 24 hours, top dose 10 μM; read-out: Effect on protein abundance, Target C (IC50 category)
Outline: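 Knock-in K562 cells carrying HiBiT-tagged Target C, 10,000 per well, treated 24 h at 37 °C with 10-point threefold dilutions (top 10 μM final, ≤0.25% DMSO). Lytic HiBiT luminescence read; response normalised to unmodified K562 and DMSO controls, four-parameter fit interpolated at 50% for IC50.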

HTT mRNA = assay: RT-qPCR splicing assay, HTT canonical junction (CJ) and alternative junction (AJ) mRNA; settings: Homo sapiens; for AC50: increase in HTT alternative junction (AJ) mRNA, read-out: HTT AJ AC50
Outline: as §1

[3] = Table 5 panel, canonical junction qPCR, compound concentration having 50% response in CJ decrease, read-out: MYB IC50 (decrease in CJ mRNA levels)
[4] = decrease in MYB canonical junction (CJ) mRNA, RT-qPCR, read-out: MYB CJ IC50
[5] = decrease in HTT canonical junction (CJ) mRNA, RT-qPCR, read-out: HTT CJ IC50
[6] = Table 5 panel, canonical junction qPCR, compound concentration having 50% response in CJ decrease, read-out: HTT IC50 (decrease in CJ mRNA levels)

Row | SMILES | IC50 (Target C [1]) | IC50 (MYB mRNA; [3]) | IC50 (MYB mRNA; [4]) | AC50 (MYB mRNA; RT-qPCR) | IC50 (Target C [2]) | IC50 (HTT mRNA; [5]) | AC50 (HTT mRNA; RT-qPCR) | IC50 (HTT mRNA; [6])
1 | Cc1cn2cc(-c3cc(F)c4c(=O)n(N5CCNCC5)cnc4c3)cc(F)c2n1 [Compound 340, 5-fluoro-7-{8-fluoro-2-methylimidazo[1,2-a]pyridin-6-yl}-3-(piperazin-1-yl)quinazolin-4-one] | 100 to 1000 nM | < 100 nM | < 100 nM | < 100 nM | 100 to 1000 nM | 100 to 1000 nM | 100 to 1000 nM | 100 to 1000 nM
2 | Cc1cn2cc(-c3cc(F)c4c(=O)n([C@H]5CCN[C@H](C)C5)cnc4c3)cc(F)c2n1 [Compound 346, trans-5-fluoro-7-(8-fluoro-2-methylimidazo[1,2-a]pyridin-6-yl)-3-(2-methylpiperidin-4-yl)quina-zolin-4(3H)-one] | 100 to 1000 nM | < 100 nM | < 100 nM | < 100 nM | 100 to 1000 nM | 100 to 1000 nM | 100 to 1000 nM | 100 to 1000 nM
3 | Cc1cn2nc(-c3cc(F)c4c(=O)n(C5CCNCC5)ccc4c3)cc(C)c2n1 [Compound 322] | < 100 nM | < 100 nM | < 100 nM | < 100 nM | < 100 nM | < 100 nM | < 100 nM | < 100 nM
4 | Cc1cn2cc(-c3cc(F)c4c(=O)n(C5CCCNCC5)cnc4c3)cc(F)c2n1 (stereo not shown) [Compound 353, 3-(azepan-4-yl)-5-fluoro-7-{8-fluoro-2-methylimidazo[1,2-a]pyridin-6-yl}quinazolin-4-one] | 1000 to 10000 nM | 100 to 1000 nM | 100 to 1000 nM | 100 to 1000 nM | 1000 to 10000 nM | 100 to 1000 nM | 100 to 1000 nM | 100 to 1000 nM
5 | Cc1cn2cc(-c3cc(F)c4c(=O)n(C5CCNCC5(F)F)cnc4c3)cc(F)c2n1 (stereo not shown) [Compound 339] | > 10000 nM | 1000 to 10000 nM | 1000 to 10000 nM | 1000 to 10000 nM | > 10000 nM | > 10000 nM | 1000 to 10000 nM | 1000 to 10000 nM
6 | Cc1ncc(-c2ccc3c(=O)n(C4CCNCC4)cnc3c2)cn1 [Compound 354, 7-(2-methylpyrimidin-5-yl)-3-(piperidin-4-yl)quinazolin-4(3H)-one] | 1000 to 10000 nM | 1000 to 10000 nM | 1000 to 10000 nM | 1000 to 10000 nM | 1000 to 10000 nM | 1000 to 10000 nM | 1000 to 10000 nM | 1000 to 10000 nM
7 | CC[C@@H]1C[C@H](n2ncc3cc(-c4cc(C)c5nc(C)cn5n4)ccc3c2=O)CCN1 [Compound 304] | 1000 to 10000 nM | 100 to 1000 nM | 100 to 1000 nM | 100 to 1000 nM | 100 to 1000 nM | 1000 to 10000 nM | 1000 to 10000 nM | 100 to 1000 nM
8 | CNc1cc(-c2cc(C)c3nc(C)cn3n2)cc2ncn(C3CCNCC3)c(=O)c12 [Compound 359, 7-{2,8-dimethylimidazo[1,2-b]pyridazin-6-yl}-5-(methylamino)-3-(piperidin-4-yl)quinazolin-4-one] | > 10000 nM | < 100 nM | 1000 to 10000 nM | < 100 nM | 1000 to 10000 nM | 1000 to 10000 nM | 1000 to 10000 nM | 1000 to 10000 nM
9 | Cc1cc(-c2cnc3c(=O)n(C4CCNCC4)cnc3c2)cc2cn(C)nc12 [Compound 311] | 1000 to 10000 nM | 1000 to 10000 nM | 1000 to 10000 nM | 1000 to 10000 nM | 1000 to 10000 nM | 1000 to 10000 nM | 1000 to 10000 nM | 1000 to 10000 nM
10 | CNc1cc(-c2cc(C#N)c3nc(C)cn3c2)cc2ncn(C3CCNCC3)c(=O)c12 [Compound 363, 2-methyl-6-[5-(methylamino)-4-oxo-3-(piperidin-4-yl)quinazolin-7-yl]imidazo[1,2-a]pyridine-8-carbonitrile] | > 10000 nM | > 10000 nM | > 10000 nM | > 10000 nM | 1000 to 10000 nM | > 10000 nM | > 10000 nM | > 10000 nM
11 | Cc1cn2nc(-c3ccc4c(c3)CCN(C3CCNC(C)(C)C3)C4=O)cc(C)c2n1 (stereo not shown) [Compound 267] | 1000 to 10000 nM | 1000 to 10000 nM | < 100 nM | 1000 to 10000 nM | 1000 to 10000 nM | 100 to 1000 nM | 1000 to 10000 nM | 1000 to 10000 nM
